Reference: ChEMBL document CHEMBL3734667 (Bioorg Med Chem, 2015)

How the values were obtained:
[1] = Cytotoxicity against human MT4 cells assessed as cell viability after 96 hrs by MTT assay; assay type: cell-based
[2] = Cytotoxicity against MDBK cells assessed as cell viability after 48 to 96 hrs by MTT assay; assay type: cell-based, Bos taurus; conditions: cattle
[3] = Cytotoxicity against BHK cells assessed as cell viability after 48 to 96 hrs by MTT assay; assay type: cell-based, Mesocricetus auratus; conditions: hamster
[4] = Cytotoxicity against african green monkey Vero 76 cells assessed as cell viability after 48 to 96 hrs by crystal violet staining method; assay type: cell-based; conditions: chlorocebus sabaeus
[5] = tested on: Bovine viral diarrhea virus 1; assay: Antiviral activity against BVDV infected in MDBK cells assessed as inhibition of virus-induced cytopathogenicity after 3 to 4 days by MTT assay; assay type: functional, organism-based; conditions: Bovine viral diarrhea virus isolates and strains
[6] = tested on: Yellow fever virus; assay: Antiviral activity against YFV infected in BHK-21 cells assessed as inhibition of virus-induced cytopathogenicity after 3 to 4 days by MTT assay; assay type: functional, organism-based
[7] = tested on: Mammalian orthoreovirus 1; assay: Antiviral activity against Reo-1 virus infected in BHK-21 cells assessed as inhibition of virus-induced cytopathogenicity after 3 to 4 days by MTT assay; assay type: functional, cell-based; conditions: Mammalian orthoreovirus 1, BHK-21
[8] = tested on: Coxsackievirus B5; assay: Antiviral activity against human CVB5 infected in african green monkey Vero76 cells assessed as inhibition of virus-induced cytopathogenicity after 3 days by plaque reduction assay; assay type: functional, organism-based; conditions: Enterovirus B, Vero 76, 72 h
[9] = tested on: Human orthopneumovirus; assay: Antiviral activity against human RSV infected in african green monkey Vero76 cells assessed as inhibition of virus-induced cytopathogenicity after 5 days by plaque reduction assay; assay type: functional, organism-based; conditions: human respiratory syncytial virus, Vero 76, 120 h
[10] = tested on: Poliovirus 1; assay: Antiviral activity against Human poliovirus 1 Sabin infected in african green monkey Vero76 cells assessed as inhibition of virus-induced cytopathogenicity by plaque reduction assay; assay type: functional, organism-based; conditions: Enterovirus C, Vero 76
[11] = Selectivity index, ratio of CC50 for african green monkey Vero76 cells to EC50 for human CVB5; set-up: species or system Coxsackievirus B5, Vero 76
[12] = tested on: Human immunodeficiency virus 1; assay: Antiviral activity against HIV-1 infected in MT4 cells assessed as inhibition of virus-induced cytopathogenicity after 4 days by MTT assay; assay type: functional, organism-based; conditions: Human immunodeficiency virus 1, MT4, 96 h
[13] = tested on: Vesicular stomatitis virus; assay: Antiviral activity against VSV; assay type: functional, organism-based
[14] = tested on: Vaccinia virus; assay: Antiviral activity against Vaccinia virus; assay type: functional, organism-based; conditions: Orthopoxvirus vaccinia
[15] = tested on: Human alphaherpesvirus 1; assay: Antiviral activity against HSV1; assay type: functional, organism-based
[16] = Selectivity index, ratio of CC50 for african green monkey Vero76 cells to EC50 for human RSV; set-up: species or system human respiratory syncytial virus, Vero 76
[17] = Selectivity index, ratio of CC50 for MDBK cells to EC50 for BVDV; set-up: species or system Bovine viral diarrhea virus 1

Compound	CC50 at 96 h [1]	CC50 [2]	CC50 [3]	CC50 [4]	EC50 [5]	EC50 [6]	EC50 [7]	EC50 [8]	EC50 [9]	EC50 [10]	Ratio CC50/EC50 [11]	EC50 [12]	EC50 [13]	EC50 [14]	EC50 [15]	Ratio CC50/EC50 [16]	Ratio CC50/EC50 [17]
COc1ccccc1N1CCN(CCCOc2ccc(-n3nc4ccc(C(F)(F)F)cc4n3)cc2)CC1	100 µM	> 100 µM	> 100 µM	100 µM	> 100 µM	> 100 µM	> 100 µM	53 µM	> 100 µM	> 100 µM	1.89	> 100 µM	> 100 µM	> 100 µM	–	–	–
COc1ccc(Cn2nnc3cc(Cl)c(Cl)cc32)cc1	> 100 µM	> 100 µM	> 100 µM	> 100 µM	> 100 µM	> 100 µM	> 100 µM	> 100 µM	> 100 µM	> 100 µM	–	> 100 µM	> 100 µM	> 100 µM	> 100 µM	–	–
CC(C)(CCCOc1ccc(-n2nc3ccc(Cl)cc3n2)cc1)C(=O)O	51 µM	32 µM	16 µM	15 µM	> 100 µM	> 100 µM	–	0.7 µM	2 µM	> 100 µM	31.43	> 100 µM	> 100 µM	> 100 µM	–	7.5	–
COc1ccc(Cn2nc3cc(Cl)c(Cl)cc3n2)cc1	> 100 µM	> 100 µM	> 100 µM	> 100 µM	> 100 µM	> 100 µM	> 100 µM	> 100 µM	> 100 µM	> 100 µM	–	> 100 µM	> 100 µM	> 100 µM	> 100 µM	–	–
Cc1ccc(C)c(OCCCC(C)(C)C(=O)O)c1 [GEMFIBROZIL]	> 100 µM	> 100 µM	> 100 µM	> 100 µM	90 µM	> 100 µM	–	> 100 µM	> 100 µM	> 100 µM	–	–	–	–	–	–	>1.11
Cc1ccc2nn(-c3ccc(OCC(C)(C)C(=O)O)cc3)nc2c1	≥ 100 µM	69 µM	≥ 100 µM	60 µM	> 100 µM	> 100 µM	–	5 µM	15 µM	> 100 µM	12	> 100 µM	> 100 µM	> 100 µM	–	4	–
CC(C)(Oc1ccc(-n2nc3ccc(Cl)cc3n2)cc1)C(=O)O	> 100 µM	≥ 100 µM	75 µM	70 µM	> 100 µM	> 100 µM	–	> 100 µM	25 µM	> 100 µM	–	> 100 µM	> 100 µM	> 100 µM	–	2.8	–
FC(F)(F)c1ccc2nn(Cc3ccc(Cl)cc3)nc2c1	> 100 µM	> 100 µM	> 100 µM	> 100 µM	> 100 µM	> 100 µM	> 100 µM	> 100 µM	> 100 µM	> 100 µM	–	> 100 µM	> 100 µM	> 100 µM	> 100 µM	–	–
CN(C)c1cccc(C(=O)OCCCn2nc3ccccc3n2)c1	> 100 µM	> 100 µM	> 100 µM	> 100 µM	> 100 µM	> 100 µM	–	73 µM	> 100 µM	–	>1.37	> 100 µM	> 100 µM	> 100 µM	–	–	–
Cc1cc2nn(C3CCCO3)nc2cc1C (centres undefined)	> 100 µM	> 100 µM	> 100 µM	> 100 µM	> 100 µM	> 100 µM	> 100 µM	–	–	> 100 µM	–	> 100 µM	> 100 µM	–	> 100 µM	–	–
COc1ccc(Cn2nc3ccc(C(F)(F)F)cc3n2)cc1	> 100 µM	> 100 µM	> 100 µM	> 100 µM	> 100 µM	> 100 µM	> 100 µM	> 100 µM	> 100 µM	> 100 µM	–	> 100 µM	> 100 µM	> 100 µM	> 100 µM	–	–
Clc1cc2nn(C3CCCCO3)nc2cc1Cl (centres undefined)	> 100 µM	> 100 µM	> 100 µM	≥ 100 µM	> 100 µM	> 100 µM	> 100 µM	–	–	60 µM	–	> 100 µM	> 100 µM	–	> 100 µM	–	–
Clc1c(Cl)c(Cl)c2nn(C3CCCO3)nc2c1Cl (centres undefined)	> 100 µM	≥ 100 µM	30 µM	12 µM	12 µM	> 100 µM	> 100 µM	–	–	> 100 µM	–	> 100 µM	> 100 µM	–	> 100 µM	–	8.33
COc1ccc2nn(-c3ccc(OC(C)(C)C(=O)O)cc3)nc2c1	> 100 µM	≥ 100 µM	> 100 µM	90 µM	> 100 µM	> 100 µM	–	> 100 µM	20 µM	> 100 µM	–	> 100 µM	> 100 µM	> 100 µM	–	4.5	–
NC(=O)c1ncn([C@@H]2O[C@H](CO)[C@@H](O)[C@H]2O)n1 [RIBAVIRIN]	–	> 100 µM	> 100 µM	> 100 µM	–	> 100 µM	> 100 µM	> 100 µM	7 µM	> 100 µM	–	–	> 100 µM	> 100 µM	> 100 µM	>14.3	–
[O-][n+]1c2cc(C(F)(F)F)ccc2nn1-c1ccc(O)cc1	> 100 µM	72 µM	> 100 µM	> 100 µM	> 100 µM	> 100 µM	> 100 µM	75 µM	40 µM	> 100 µM	>1.33	> 100 µM	> 100 µM	> 100 µM	–	>2.5	–
CC(C)(Oc1ccc(-n2nc3ccccc3n2)cc1)C(=O)O	> 100 µM	> 100 µM	> 100 µM	≥ 100 µM	> 100 µM	> 100 µM	–	> 100 µM	80 µM	> 100 µM	–	> 100 µM	> 100 µM	> 100 µM	–	1.25	–
CC(CC(=O)O)n1nc2c(Cl)c(Cl)c(Cl)c(Cl)c2n1 (centres undefined)	> 100 µM	70 µM	33 µM	25 µM	49 µM	> 100 µM	–	25 µM	8 µM	–	–	> 100 µM	> 100 µM	> 100 µM	–	3.12	1.43
FC(F)(F)c1ccc2nn(Cc3ccccc3)nc2c1	> 100 µM	> 100 µM	> 100 µM	> 100 µM	> 100 µM	> 100 µM	> 100 µM	> 100 µM	> 100 µM	> 100 µM	–	> 100 µM	> 100 µM	> 100 µM	> 100 µM	–	–
Cc1ccc2nn(-c3ccc(OC(C)(C)C(=O)O)cc3)nc2c1	> 100 µM	> 100 µM	> 100 µM	95 µM	90 µM	> 100 µM	–	> 100 µM	22 µM	> 100 µM	–	> 100 µM	> 100 µM	> 100 µM	–	4.32	>1.11
COc1c(C)c2c(c(O)c1C/C=C(\C)CCC(=O)O)C(=O)OC2 [MYCOPHENOLIC ACID]	–	–	> 100 µM	–	> 100 µM	> 100 µM	> 100 µM	> 100 µM	0.6 µM	> 100 µM	–	–	–	2 µM	> 100 µM	33.3	–
Clc1cc2nn(Cc3ccccc3)nc2cc1Cl	> 100 µM	> 100 µM	> 100 µM	> 100 µM	> 100 µM	> 100 µM	> 100 µM	> 100 µM	> 100 µM	> 100 µM	–	> 100 µM	> 100 µM	> 100 µM	> 100 µM	–	–
Clc1ccc(Cn2nc3cc(Cl)c(Cl)cc3n2)cc1	> 100 µM	> 100 µM	> 100 µM	> 100 µM	> 100 µM	> 100 µM	> 100 µM	> 100 µM	> 100 µM	> 100 µM	–	> 100 µM	> 100 µM	> 100 µM	> 100 µM	–	–
